Drawing on patent US9932340B2, “Substituted indoles” (AbbVie Inc., priority 2014, dated 2018), this text covers IC50 for 33 compounds.

Each structure is given as a SMILES string.

The target in this assay is SUV420H1 enzyme (Homo sapiens, UniProt Q4FZB7). The assay can be described thus: TR-FRET SAH SUV420H1 enzyme inhibition assay. The class given is biochemical. The note with it: Histone Peptide H4(8-30)me1 and SAM, overnight at room temp, TR-FRET detection of SAH, read-out: TR-FRET SAH_SUV420H1 IC50. Summed up: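 SUV420H1 (90 nM) preincubated 30 min with compound (3-fold dilutions, 50 to 0.00075 μM), then H4(8-30)me1 peptide 5 nM and SAM 4 nM added, overnight at room temp. SAH product detected by TR-FRET with Tb anti-SAH antibody and Oregon Green-SAH in RIPA buffer, 4 h; IC50 from Hill fit, asymptotes fixed 0-100%.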
Chain of SUV420H1 enzyme (Q4FZB7 whole entry): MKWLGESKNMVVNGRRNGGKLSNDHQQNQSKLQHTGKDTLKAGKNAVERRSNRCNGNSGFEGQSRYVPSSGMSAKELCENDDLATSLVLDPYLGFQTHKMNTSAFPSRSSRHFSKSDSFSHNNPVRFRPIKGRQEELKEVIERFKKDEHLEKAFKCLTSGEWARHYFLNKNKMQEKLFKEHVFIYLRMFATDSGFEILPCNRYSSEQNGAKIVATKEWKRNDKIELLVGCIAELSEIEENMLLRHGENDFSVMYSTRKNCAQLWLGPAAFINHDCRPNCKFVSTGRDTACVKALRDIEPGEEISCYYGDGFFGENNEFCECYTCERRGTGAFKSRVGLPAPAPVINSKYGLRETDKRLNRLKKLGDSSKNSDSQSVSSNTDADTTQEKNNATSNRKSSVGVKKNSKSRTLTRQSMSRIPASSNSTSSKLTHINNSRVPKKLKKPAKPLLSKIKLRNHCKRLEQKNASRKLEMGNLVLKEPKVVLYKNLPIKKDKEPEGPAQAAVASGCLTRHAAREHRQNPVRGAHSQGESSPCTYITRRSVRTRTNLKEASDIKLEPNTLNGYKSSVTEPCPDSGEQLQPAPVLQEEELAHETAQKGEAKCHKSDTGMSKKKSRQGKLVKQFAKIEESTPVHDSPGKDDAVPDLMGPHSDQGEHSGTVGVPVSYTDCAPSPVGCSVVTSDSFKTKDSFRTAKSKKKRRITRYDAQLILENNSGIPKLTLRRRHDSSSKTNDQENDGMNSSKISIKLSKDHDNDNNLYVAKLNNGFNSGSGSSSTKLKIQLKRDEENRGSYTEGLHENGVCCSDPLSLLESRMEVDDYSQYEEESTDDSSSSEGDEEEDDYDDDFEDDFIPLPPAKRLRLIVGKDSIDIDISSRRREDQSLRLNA
Background: Time-resolved FRET reads energy transfer from a long-lived donor to a nearby acceptor.
As to `COc1ccc(-c2cc(Cn3cnc4c(N)ncnc43)c3[nH]c(CNC(=O)c4c(C)noc4C)cc3c2)cc1` [Example 168, N-({7-[(6-amino-9H-purin-9-yl)methyl]-5-(4-methoxyphenyl)-1H-indol-2-yl}methyl)-3,5-dimethyl-1,2-oxazole-4-carboxamide], the 50% inhibitory concentration (IC50) (usually the concentration that gives 50% inhibition) was determined as 333 nM.

With `Cc1ccc(CNCc2cc3cc(Cl)cc(Cn4cnc5c(N)ncnc54)c3[nH]2)cc1` [Example 241, 9-[(5-chloro-2-{[(4-methylbenzyl)amino]methyl}-1H-indol-7-yl)methyl]-9H-purin-6-amine], the half-inhibitory concentration (IC50) is 3630 nM.

`NCc1cc2cc(-c3ccccc3)cc(Cn3cnc4c(N)ncnc43)c2[nH]1` [Example 22, 9-{[2-(aminomethyl)-5-phenyl-1H-indol-7-yl]methyl}-9H-purin-6-amine]: the IC50 was 458 nM. With `CN(C)C(=O)c1ccc(-c2cc(Cn3cnc4c(N)ncnc43)c3[nH]c(CN)cc3c2)cc1` [Example 47, 4-{2-(aminomethyl)-7-[(6-amino-9H-purin-9-yl)methyl]-1H-indol-5-yl}-N,N-dimethylbenzamide] the figure was 354 nM; with `Cc1nnccc1C(=O)NCc1cc2cc(C3=CCNCC3)cc(Cn3cnc4c(N)ncnc43)c2[nH]1` [Example 200, N-({7-[(6-amino-9H-purin-9-yl)methyl]-5-(1,2,3,6-tetrahydropyridin-4-yl)-1H-indol-2-yl}methyl)-3-methylpyridazine-4-carboxamide], 100 nM. With `CCNC(=O)c1cccc(-c2cc(Cn3cnc4c(N)ncnc43)c3[nH]c(CN)cc3c2)c1` [Example 46, 3-{2-(aminomethyl)-7-[(6-amino-9H-purin-9-yl)methyl]-1H-indol-5-yl}-N-ethylbenzamide] the figure was 541 nM. With `CCC(N)c1cc2cc(Cl)cc(Cn3cnc4c(N)ncnc43)c2[nH]1` (stereo not drawn) [Example 91, 9-{[2-(1-aminopropyl)-5-chloro-1H-indol-7-yl]methyl}-9H-purin-6-amine] the figure was 2670 nM; with `Nc1ncnc2c1ncn2Cc1cc(Cl)cc2cc(CNCc3cc(Cl)cc(Cl)c3)[nH]c12` [Example 212, 9-[(5-chloro-2-{[(3,5-dichlorobenzyl)amino]methyl}-1H-indol-7-yl)methyl]-9H-purin-6-amine], 3640 nM; with `N#Cc1ccc(-c2cc(Cn3cnc4c(N)ncnc43)c3[nH]c(CN)cc3c2)cc1` [Example 38, 4-{2-(aminomethyl)-7-[(6-amino-9H-purin-9-yl)methyl]-1H-indol-5-yl}benzonitrile], 810 nM. As to `Cc1ccccc1CNCc1cc2cc(Cl)cc(Cn3cnc4c(N)ncnc43)c2[nH]1` [Example 242, 9-[(5-chloro-2-{[(2-methylbenzyl)amino]methyl}-1H-indol-7-yl)methyl]-9H-purin-6-amine], the IC50 worked out at 2640 nM. With `NCc1cc2cc(-c3ccccc3F)cc(Cn3cnc4c(N)ncnc43)c2[nH]1` [Example 27, 9-{[2-(aminomethyl)-5-(2-fluorophenyl)-1H-indol-7-yl]methyl}-9H-purin-6-amine] the figure was 1210 nM; with `Nc1ncnc2c1ncn2Cc1cc(Cl)cc2cc(CNC(=O)c3ccc[nH]3)[nH]c12` [Example 146, N-({7-[(6-amino-9H-purin-9-yl)methyl]-5-chloro-1H-indol-2-yl}methyl)-1H-pyrrole-2-carboxamide], 14200 nM. On to `Nc1nc(C2CC2)nc2c1ncn2Cc1cccc2cc[nH]c12` [Example 6, 2-cyclopropyl-9-(1H-indol-7-ylmethyl)-9H-purin-6-amine], for which the 50% inhibitory concentration (IC50) amounted to 1460 nM. Regarding `Cc1noc(C)c1C(=O)NCc1cc2cc(-c3cccc(C(=O)N4CCOCC4)c3)cc(Cn3cnc4c(N)ncnc43)c2[nH]1` [Example 180, N-({7-[(6-amino-9H-purin-9-yl)methyl]-5-[3-(morpholin-4-ylcarbonyl)phenyl]-1H-indol-2-yl}methyl)-3,5-dimethyl-1,2-oxazole-4-carboxamide], the IC50 amounted to 130 nM.

Consider `Cn1nc(C(=O)NCc2cc3cc(Cl)cc(Cn4cnc5c(N)ncnc54)c3[nH]2)c2c1CCC2` [Example 191, N-({7-[(6-amino-9H-purin-9-yl)methyl]-5-chloro-1H-indol-2-yl}methyl)-1-methyl-1,4,5,6-tetrahydrocyclopenta[c]pyrazole-3-carboxamide], for which the IC50 amounted to 2980 nM. Regarding `CC1CCC(C(=O)NCc2cc3cc(Cl)cc(Cn4cnc5c(N)ncnc54)c3[nH]2)CC1` (stereo not drawn) [Example 130, N-({7-[(6-amino-9H-purin-9-yl)methyl]-5-chloro-1H-indol-2-yl}methyl)-4-methylcyclohexanecarboxamide], the IC50 worked out at 2390 nM.

For the compound `COc1cccc(CNCc2cc3cc(Cl)cc(Cn4cnc5c(N)ncnc54)c3[nH]2)c1` [Example 249, 9-[(5-chloro-2-{[(3-methoxybenzyl)amino]methyl}-1H-indol-7-yl)methyl]-9H-purin-6-amine], the IC50 was found to be 3310 nM. With `Cn1ncc2cc(C(=O)NCc3cc4cc(Cl)cc(Cn5cnc6c(N)ncnc65)c4[nH]3)ccc21` [Example 362, N-({7-[(6-amino-9H-purin-9-yl)methyl]-5-chloro-1H-indol-2-yl}methyl)-1-methyl-1H-indazole-5-carboxamide], the IC50 worked out at 636 nM.

Turning to `Cc1nocc1C(=O)NCc1cc2cc(Cl)cc(Cn3cnc4c(N)ncnc43)c2[nH]1` [Example 150, N-({7-[(6-amino-9H-purin-9-yl)methyl]-5-chloro-1H-indol-2-yl}methyl)-3-methyl-1,2-oxazole-4-carboxamide], the IC50 turned out to be 382 nM. With `Cc1nc2ccc(C(=O)NCc3cc4cc(Cl)cc(Cn5cnc6c(N)ncnc65)c4[nH]3)cc2s1` [Example 358, N-({7-[(6-amino-9H-purin-9-yl)methyl]-5-chloro-1H-indol-2-yl}methyl)-2-methyl-1,3-benzothiazole-6-carboxamide] the figure was 889 nM; with `N#Cc1ccc(C(=O)NCc2cc3cc(C4=CCC(F)(F)CC4)cc(Cn4cnc5c(N)ncnc54)c3[nH]2)c(F)c1` [Example 287, N-({7-[(6-amino-9H-purin-9-yl)methyl]-5-(4,4-difluorocyclohex-1-en-1-yl)-1H-indol-2-yl}methyl)-4-cyano-2-fluorobenzamide], 87.8 nM; with `CN(C)C(=O)c1ccc(-c2ccc(Cn3cnc4c(N)ncnc43)c3[nH]c(CN)cc23)cc1` [Example 86, 4-{2-(aminomethyl)-7-[(6-amino-9H-purin-9-yl)methyl]-1H-indol-4-yl}-N,N-dimethylbenzamide], 915 nM. Consider `Nc1ncnc2c1ncn2Cc1cc(Cl)cc2cc(CNC(=O)c3ccns3)[nH]c12` [Example 137, N-({7-[(6-amino-9H-purin-9-yl)methyl]-5-chloro-1H-indol-2-yl}methyl)-1,2-thiazole-5-carboxamide], for which the IC50 was 2040 nM.

In the case of `COc1ccc(-c2cc(Cn3cnc4c(N)ncnc43)c3[nH]c(CN)cc3c2)cn1` [Example 28, 9-{[2-(aminomethyl)-5-(6-methoxypyridin-3-yl)-1H-indol-7-yl]methyl}-9H-purin-6-amine], the IC50 amounted to 426 nM. Turning to `Cc1noc(C)c1C(=O)NCc1cc2cc(-c3cccc(C(N)=O)c3)cc(Cn3cnc4c(N)ncnc43)c2[nH]1` [Example 173, N-({7-[(6-amino-9H-purin-9-yl)methyl]-5-(3-carbamoylphenyl)-1H-indol-2-yl}methyl)-3,5-dimethyl-1,2-oxazole-4-carboxamide], the IC50 worked out at 41.2 nM. With `Cc1noc(C)c1C(=O)NCc1cc2cc(-c3ccc(CC#N)cc3)cc(Cn3cnc4c(N)ncnc43)c2[nH]1` [Example 175, N-({7-[(6-amino-9H-purin-9-yl)methyl]-5-[4-(cyanomethyl)phenyl]-1H-indol-2-yl}methyl)-3,5-dimethyl-1,2-oxazole-4-carboxamide] the figure was 82.8 nM; with `CCc1noc(C)c1C(=O)NCc1cc2cc(Cl)cc(Cn3cnc4c(N)ncnc43)c2[nH]1` [Example 186, N-({7-[(6-amino-9H-purin-9-yl)methyl]-5-chloro-1H-indol-2-yl}methyl)-3-ethyl-5-methyl-1,2-oxazole-4-carboxamide], 263 nM; with `Nc1ncnc2c1ncn2Cc1cc(Cl)cc2cc(CNCc3ccccc3Cl)[nH]c12` [Example 210, 9-[(5-chloro-2-{[(2-chlorobenzyl)amino]methyl}-1H-indol-7-yl)methyl]-9H-purin-6-amine], 3340 nM. With `Nc1ncnc2c1ncn2Cc1cc(Cl)cc2cc(CNC(=O)c3cnoc3)[nH]c12` [Example 141, N-({7-[(6-amino-9H-purin-9-yl)methyl]-5-chloro-1H-indol-2-yl}methyl)-1,2-oxazole-4-carboxamide] the figure was 783 nM; with `CC(C)n1nnc2cc(C(=O)NCc3cc4cc(Cl)cc(Cn5cnc6c(N)ncnc65)c4[nH]3)ccc21` [Example 371, N-({7-[(6-amino-9H-purin-9-yl)methyl]-5-chloro-1H-indol-2-yl}methyl)-1-(propan-2-yl)-1H-benzotriazole-5-carboxamide], 21500 nM. With `NCc1cc2cc(-c3cccnc3)cc(Cn3cnc4c(N)ncnc43)c2[nH]1` [Example 20, 9-{[2-(aminomethyl)-5-(pyridin-3-yl)-1H-indol-7-yl]methyl}-9H-purin-6-amine] the figure was 866 nM; with `Cc1[nH]c2cc(C(=O)NCc3cc4cc(Cl)cc(Cn5cnc6c(N)ncnc65)c4[nH]3)ccc2c1C` [Example 374, N-({7-[(6-amino-9H-purin-9-yl)methyl]-5-chloro-1H-indol-2-yl}methyl)-2,3-dimethyl-1H-indole-6-carboxamide], 261 nM; with `CC(=O)Nc1ccc(C(=O)NCc2cc3cc(Cl)cc(Cn4cnc5c(N)ncnc54)c3[nH]2)cc1` [Example 313, 4-(acetylamino)-N-({7-[(6-amino-9H-purin-9-yl)methyl]-5-chloro-1H-indol-2-yl}methyl)benzamide], greater than 50000 nM.
